According to ChEMBL document CHEMBL5291721, “A preclinical secondary pharmacology resource illuminates target-adverse drug reaction associations of marketed drugs” (Nat Commun, 2023):

Key:
Androgen receptor = biological target: T1, Androgen receptor (Rattus norvegicus, UniProt P15207); format: functional
T1 sequence (P15207 whole entry): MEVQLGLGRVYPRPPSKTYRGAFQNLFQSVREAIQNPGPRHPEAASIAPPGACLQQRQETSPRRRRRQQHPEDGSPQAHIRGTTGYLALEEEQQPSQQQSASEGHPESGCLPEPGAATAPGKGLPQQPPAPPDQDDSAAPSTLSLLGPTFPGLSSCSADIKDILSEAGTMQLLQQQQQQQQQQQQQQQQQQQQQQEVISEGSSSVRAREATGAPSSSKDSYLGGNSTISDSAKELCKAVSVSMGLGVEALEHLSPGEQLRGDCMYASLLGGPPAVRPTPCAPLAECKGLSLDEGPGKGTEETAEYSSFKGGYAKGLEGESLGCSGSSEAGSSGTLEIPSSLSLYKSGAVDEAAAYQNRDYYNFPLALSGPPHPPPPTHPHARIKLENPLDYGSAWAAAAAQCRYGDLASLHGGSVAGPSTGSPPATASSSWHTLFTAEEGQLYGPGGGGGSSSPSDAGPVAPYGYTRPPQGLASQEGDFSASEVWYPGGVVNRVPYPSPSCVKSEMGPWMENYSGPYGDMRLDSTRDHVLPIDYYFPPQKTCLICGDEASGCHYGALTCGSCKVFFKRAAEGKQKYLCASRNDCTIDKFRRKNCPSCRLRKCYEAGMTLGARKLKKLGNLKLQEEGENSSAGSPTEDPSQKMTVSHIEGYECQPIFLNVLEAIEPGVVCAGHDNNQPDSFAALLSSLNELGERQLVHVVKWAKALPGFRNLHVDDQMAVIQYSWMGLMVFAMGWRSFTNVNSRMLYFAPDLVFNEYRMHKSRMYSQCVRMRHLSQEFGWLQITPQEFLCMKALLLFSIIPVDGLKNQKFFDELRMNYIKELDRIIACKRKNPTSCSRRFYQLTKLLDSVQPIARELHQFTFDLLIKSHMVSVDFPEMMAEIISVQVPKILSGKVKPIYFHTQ

[1] = biological target: Gamma-aminobutyric acid receptor subunit alpha-1/alpha-2/beta-2/gamma-2 (Homo sapiens, UniProt P14867+P18507+P47869+P47870); format: functional, cell-based
Chain of Gamma-aminobutyric acid receptor subunit alpha-1/alpha-2/beta-2/gamma-2 (P14867 whole entry): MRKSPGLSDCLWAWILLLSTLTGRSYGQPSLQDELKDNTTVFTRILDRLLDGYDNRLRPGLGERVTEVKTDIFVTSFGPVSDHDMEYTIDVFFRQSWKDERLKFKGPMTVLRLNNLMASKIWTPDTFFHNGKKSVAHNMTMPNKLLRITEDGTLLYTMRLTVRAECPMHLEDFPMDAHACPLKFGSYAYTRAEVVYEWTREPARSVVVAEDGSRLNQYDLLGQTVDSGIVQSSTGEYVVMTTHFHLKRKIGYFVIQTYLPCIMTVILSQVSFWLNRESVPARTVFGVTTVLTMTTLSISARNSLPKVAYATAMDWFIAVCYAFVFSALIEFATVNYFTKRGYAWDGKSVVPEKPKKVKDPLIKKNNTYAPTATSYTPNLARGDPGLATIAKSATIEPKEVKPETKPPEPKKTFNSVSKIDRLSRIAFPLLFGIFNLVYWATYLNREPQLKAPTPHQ
Chain of Gamma-aminobutyric acid receptor subunit alpha-1/alpha-2/beta-2/gamma-2 (P47870 whole entry): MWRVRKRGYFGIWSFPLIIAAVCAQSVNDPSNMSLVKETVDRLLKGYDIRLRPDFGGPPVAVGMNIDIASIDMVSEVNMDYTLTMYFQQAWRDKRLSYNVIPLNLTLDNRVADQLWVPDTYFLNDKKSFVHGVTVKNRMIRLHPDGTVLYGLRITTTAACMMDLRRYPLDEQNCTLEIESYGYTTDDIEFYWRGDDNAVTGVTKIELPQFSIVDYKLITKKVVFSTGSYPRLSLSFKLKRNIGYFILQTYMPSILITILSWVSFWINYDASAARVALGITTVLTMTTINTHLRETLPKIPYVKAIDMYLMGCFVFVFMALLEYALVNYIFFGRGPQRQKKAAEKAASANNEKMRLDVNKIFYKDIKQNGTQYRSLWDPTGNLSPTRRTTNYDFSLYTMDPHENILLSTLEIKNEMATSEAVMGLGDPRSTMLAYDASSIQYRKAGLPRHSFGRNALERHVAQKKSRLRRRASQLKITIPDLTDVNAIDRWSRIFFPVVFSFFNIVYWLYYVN
Chain of Gamma-aminobutyric acid receptor subunit alpha-1/alpha-2/beta-2/gamma-2 (P18507 whole entry): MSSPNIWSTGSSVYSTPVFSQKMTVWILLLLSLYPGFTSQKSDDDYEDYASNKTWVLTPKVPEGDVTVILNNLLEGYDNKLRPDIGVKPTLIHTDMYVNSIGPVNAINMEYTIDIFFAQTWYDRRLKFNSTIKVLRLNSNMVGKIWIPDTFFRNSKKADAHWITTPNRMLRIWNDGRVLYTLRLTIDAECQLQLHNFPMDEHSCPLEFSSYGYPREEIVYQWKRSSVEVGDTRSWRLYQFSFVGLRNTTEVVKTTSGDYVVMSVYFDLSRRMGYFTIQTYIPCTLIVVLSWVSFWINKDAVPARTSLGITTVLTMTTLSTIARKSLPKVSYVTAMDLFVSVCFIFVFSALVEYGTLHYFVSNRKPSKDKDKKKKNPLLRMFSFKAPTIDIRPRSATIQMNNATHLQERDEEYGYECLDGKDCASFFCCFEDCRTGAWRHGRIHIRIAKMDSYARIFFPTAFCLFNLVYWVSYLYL
Chain of Gamma-aminobutyric acid receptor subunit alpha-1/alpha-2/beta-2/gamma-2 (P47869 whole entry): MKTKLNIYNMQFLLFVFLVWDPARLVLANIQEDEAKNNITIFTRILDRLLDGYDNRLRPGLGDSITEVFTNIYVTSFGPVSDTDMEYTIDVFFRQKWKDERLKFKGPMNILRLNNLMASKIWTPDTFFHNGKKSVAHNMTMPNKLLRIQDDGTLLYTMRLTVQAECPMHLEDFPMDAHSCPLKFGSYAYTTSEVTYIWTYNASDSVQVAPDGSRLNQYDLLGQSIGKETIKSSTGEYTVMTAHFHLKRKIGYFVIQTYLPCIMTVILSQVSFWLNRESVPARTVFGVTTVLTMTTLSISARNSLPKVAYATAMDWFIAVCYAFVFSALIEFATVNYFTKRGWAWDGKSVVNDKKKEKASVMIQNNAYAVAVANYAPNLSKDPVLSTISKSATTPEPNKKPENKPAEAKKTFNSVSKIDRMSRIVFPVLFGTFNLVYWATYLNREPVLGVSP

[2] = biological target: 5-hydroxytryptamine receptor 2A (Homo sapiens, UniProt P28223); format: functional, cell-based
Chain of 5-hydroxytryptamine receptor 2A (P28223 whole entry): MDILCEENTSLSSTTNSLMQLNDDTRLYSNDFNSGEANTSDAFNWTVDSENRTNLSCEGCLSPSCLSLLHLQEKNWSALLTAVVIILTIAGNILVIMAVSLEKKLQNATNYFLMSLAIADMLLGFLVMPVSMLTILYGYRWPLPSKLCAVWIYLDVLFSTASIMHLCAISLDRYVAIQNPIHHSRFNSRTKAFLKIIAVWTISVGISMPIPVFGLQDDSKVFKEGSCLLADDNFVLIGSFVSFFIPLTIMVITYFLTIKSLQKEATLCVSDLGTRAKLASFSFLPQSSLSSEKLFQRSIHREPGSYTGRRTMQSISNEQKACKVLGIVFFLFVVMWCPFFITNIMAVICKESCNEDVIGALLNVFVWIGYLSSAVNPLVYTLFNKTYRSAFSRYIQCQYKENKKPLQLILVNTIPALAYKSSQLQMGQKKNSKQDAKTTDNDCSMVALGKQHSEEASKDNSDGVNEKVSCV

Glucocorticoid receptor [3] = biological target: T2, Glucocorticoid receptor (Homo sapiens, UniProt P04150); format: functional
T2 sequence (P04150 whole entry): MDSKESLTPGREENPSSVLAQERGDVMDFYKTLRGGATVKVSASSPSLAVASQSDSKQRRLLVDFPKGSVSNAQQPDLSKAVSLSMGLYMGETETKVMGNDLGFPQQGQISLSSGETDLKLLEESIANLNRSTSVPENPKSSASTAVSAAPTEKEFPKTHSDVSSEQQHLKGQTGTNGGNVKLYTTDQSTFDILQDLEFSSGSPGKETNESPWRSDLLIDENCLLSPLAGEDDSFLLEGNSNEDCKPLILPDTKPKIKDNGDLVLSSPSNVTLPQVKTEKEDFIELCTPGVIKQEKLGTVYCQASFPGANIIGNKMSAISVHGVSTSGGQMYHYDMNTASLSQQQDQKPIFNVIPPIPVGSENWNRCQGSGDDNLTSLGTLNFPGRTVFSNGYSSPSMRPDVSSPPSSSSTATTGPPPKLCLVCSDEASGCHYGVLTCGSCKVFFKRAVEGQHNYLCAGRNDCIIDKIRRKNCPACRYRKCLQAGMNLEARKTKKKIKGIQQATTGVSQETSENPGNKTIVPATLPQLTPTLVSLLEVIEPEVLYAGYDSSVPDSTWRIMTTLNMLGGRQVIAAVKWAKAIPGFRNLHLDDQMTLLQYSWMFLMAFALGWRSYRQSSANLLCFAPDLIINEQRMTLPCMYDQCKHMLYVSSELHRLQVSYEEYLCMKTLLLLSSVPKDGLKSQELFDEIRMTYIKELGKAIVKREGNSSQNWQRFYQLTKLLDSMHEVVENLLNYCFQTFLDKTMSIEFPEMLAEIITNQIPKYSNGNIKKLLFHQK

Glucocorticoid receptor [4] = biological target: T2, Glucocorticoid receptor; format: functional; remark: listed apart in the source
[5] = biological target: Sodium-dependent serotonin transporter (Homo sapiens, UniProt P31645)
Chain of Sodium-dependent serotonin transporter (P31645 whole entry): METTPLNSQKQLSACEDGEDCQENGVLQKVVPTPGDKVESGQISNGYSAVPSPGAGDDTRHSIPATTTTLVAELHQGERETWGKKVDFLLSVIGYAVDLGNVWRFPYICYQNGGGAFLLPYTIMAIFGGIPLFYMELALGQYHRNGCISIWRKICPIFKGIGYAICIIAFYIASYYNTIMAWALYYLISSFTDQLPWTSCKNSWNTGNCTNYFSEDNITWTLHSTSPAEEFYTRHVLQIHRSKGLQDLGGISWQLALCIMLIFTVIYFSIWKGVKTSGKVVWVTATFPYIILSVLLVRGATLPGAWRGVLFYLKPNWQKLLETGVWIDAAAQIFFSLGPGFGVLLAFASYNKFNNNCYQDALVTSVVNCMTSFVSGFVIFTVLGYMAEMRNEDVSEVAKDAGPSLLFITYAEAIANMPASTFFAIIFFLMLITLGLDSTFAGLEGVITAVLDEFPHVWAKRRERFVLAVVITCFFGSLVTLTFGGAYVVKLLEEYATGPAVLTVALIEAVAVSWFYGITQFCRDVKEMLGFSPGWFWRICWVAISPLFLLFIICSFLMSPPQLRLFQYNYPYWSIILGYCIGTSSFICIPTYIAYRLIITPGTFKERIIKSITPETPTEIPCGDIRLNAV

[6] = biological target: T3, Endothelin receptor type B (Homo sapiens, UniProt P24530)
T3 sequence (P24530 whole entry): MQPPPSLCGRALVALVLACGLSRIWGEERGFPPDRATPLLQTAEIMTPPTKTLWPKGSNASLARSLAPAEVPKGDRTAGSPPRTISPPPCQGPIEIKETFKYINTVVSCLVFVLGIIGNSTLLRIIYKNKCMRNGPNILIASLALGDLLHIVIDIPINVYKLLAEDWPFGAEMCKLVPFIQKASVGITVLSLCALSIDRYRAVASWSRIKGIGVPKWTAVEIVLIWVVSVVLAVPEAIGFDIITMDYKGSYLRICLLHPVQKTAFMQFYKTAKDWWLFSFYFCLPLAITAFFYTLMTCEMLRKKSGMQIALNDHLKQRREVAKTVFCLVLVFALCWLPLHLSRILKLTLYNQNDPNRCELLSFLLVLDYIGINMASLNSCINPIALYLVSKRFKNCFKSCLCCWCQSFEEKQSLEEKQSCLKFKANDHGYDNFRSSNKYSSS

Mu-type opioid receptor = Mu-type opioid receptor (Homo sapiens, UniProt P35372); test: biochemical; format: functional
Chain of Mu-type opioid receptor (P35372 whole entry): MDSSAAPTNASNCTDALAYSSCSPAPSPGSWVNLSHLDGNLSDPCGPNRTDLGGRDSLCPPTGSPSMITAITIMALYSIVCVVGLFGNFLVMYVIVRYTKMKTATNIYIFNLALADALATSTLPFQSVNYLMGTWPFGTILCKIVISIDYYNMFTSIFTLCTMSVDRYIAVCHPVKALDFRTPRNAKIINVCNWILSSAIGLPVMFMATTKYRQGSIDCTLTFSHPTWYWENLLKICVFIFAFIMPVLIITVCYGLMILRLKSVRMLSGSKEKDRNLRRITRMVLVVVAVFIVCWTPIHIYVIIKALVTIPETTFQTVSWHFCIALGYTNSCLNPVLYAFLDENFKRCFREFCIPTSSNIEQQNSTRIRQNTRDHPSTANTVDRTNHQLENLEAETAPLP

[7] = biological target: T4, Muscarinic acetylcholine receptor M2 (Homo sapiens, UniProt P08172)
T4 sequence (P08172 whole entry): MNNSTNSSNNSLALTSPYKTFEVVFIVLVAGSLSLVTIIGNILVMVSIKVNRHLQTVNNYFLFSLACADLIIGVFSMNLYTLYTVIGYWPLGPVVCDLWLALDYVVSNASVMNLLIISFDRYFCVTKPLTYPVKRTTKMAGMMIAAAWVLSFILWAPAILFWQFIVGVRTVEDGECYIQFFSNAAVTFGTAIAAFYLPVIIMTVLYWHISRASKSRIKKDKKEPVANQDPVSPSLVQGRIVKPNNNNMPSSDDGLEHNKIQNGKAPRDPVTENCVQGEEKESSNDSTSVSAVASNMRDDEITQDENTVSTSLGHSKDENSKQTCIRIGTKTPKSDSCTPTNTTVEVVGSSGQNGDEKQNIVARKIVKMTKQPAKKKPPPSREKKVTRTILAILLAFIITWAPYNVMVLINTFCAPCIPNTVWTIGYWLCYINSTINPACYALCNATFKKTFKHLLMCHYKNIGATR
Further: assay procedure not described here.

SMILES | AC50 (Androgen receptor) [µM] | AC50 [1] [µM] | AC50 [2] [µM] | AC50 (Glucocorticoid receptor [3]) [µM] | AC50 (Glucocorticoid receptor [4]) [µM] | AC50 [5] [µM] | AC50 [6] [µM] | AC50 (Mu-type opioid receptor) [µM] | AC50 [7] [µM]
CC(=N)N1CC[C@H](SC2=C(C(=O)O)N3C(=O)[C@H]([C@@H](C)O)[C@H]3C2)C1 | > 300 | > 800 | > 300 | > 300 | > 300 | 37 |  |  | 
CC1(C)S[C@@H]2[C@H](NC(=O)[C@H](N)c3ccc(O)cc3)C(=O)N2[C@H]1C(=O)O [AMOXICILLIN] | > 30 |  |  |  |  |  | > 30 | > 30 | > 10
CCc1oc2ccccc2c1C(=O)c1cc(Br)c(O)c(Br)c1 [BENZBROMARONE] | > 30 | > 30 |  | > 30 | > 30 |  |  |  | 0.0373
C=C(C)[C@@H]1CCC(C)=C[C@H]1c1c(O)cc(CCCCC)cc1O [CANNABIDIOL] | > 30 |  | 4.7 | > 30 | > 30 | > 30 |  |  | 
COC(=O)[C@H](c1ccccc1Cl)N1CCc2sccc2C1 [CLOPIDOGREL] |  | > 30 |  | > 30 | > 30 |  | > 30 | > 30 | > 10
C#Cc1cccc(Nc2ncnc3cc(OCCOC)c(OCCOC)cc23)c1 [ERLOTINIB] |  | > 30 |  | > 30 | > 30 |  |  |  | 
CC1(C)O[C@@H]2C[C@H]3[C@@H]4C[C@H](F)C5=CC(=O)C=C[C@]5(C)[C@H]4[C@@H](O)C[C@]3(C)[C@]2(C(=O)CO)O1 [FLUNISOLIDE] |  | > 30 |  | 0.021 | > 30 |  |  |  | 
C[C@H]1Oc2cc(cnc2N)-c2c(nn(C)c2C#N)CN(C)C(=O)c2ccc(F)cc21 [LORLATINIB] | > 30 | > 30 | > 30 | > 30 | > 30 | > 30 |  |  | 
O=C1NC(=O)C(c2ccccc2)(c2ccccc2)N1 [PHENYTOIN] |  |  |  | > 30 | > 30 |  | > 30 |  | 
CC(C)C[C@H](CN)CC(=O)O [PREGABALIN] |  | > 30 | > 30 | > 30 | > 30 | > 30 | > 30 | > 30 | 
CNC(=O)c1cc(Oc2ccc(NC(=O)Nc3ccc(Cl)c(C(F)(F)F)c3)c(F)c2)ccn1 [REGORAFENIB] | > 30 |  | > 30 | > 30 | 17 | > 30 |  |  | 
CCOc1cc(CC(=O)N[C@@H](CC(C)C)c2ccccc2N2CCCCC2)ccc1C(=O)O [REPAGLINIDE] | > 30 | > 30 | 9.4 | > 30 | > 30 | > 30 |  |  | 
CCCN(CCC)CCc1cccc2c1CC(=O)N2 [ROPINIROLE] |  | > 30 | 7.3 | > 30 | > 30 | > 30 | > 30 | > 30 | 12.1
CCCN(CCc1cccs1)[C@H]1CCc2c(O)cccc2C1 [ROTIGOTINE] | > 30 | > 30 |  | > 30 | > 30 | 7.8 |  |  | 
CC[C@H]1OC(=O)[C@H](C)[C@@H](O[C@H]2C[C@@](C)(OC)[C@@H](O)[C@H](C)O2)[C@H](C)[C@@H](O[C@@H]2O[C@H](C)C[C@H](N(C)C)[C@H]2O)[C@](C)(O)C[C@@H](C)/C(=N\OCOCCOC)[C@H](C)[C@@H](O)[C@]1(C)O [ROXITHROMYCIN] |  | > 30 |  | > 30 | > 30 |  |  |  | 
CC(=O)S[C@@H]1CC2=CC(=O)CC[C@]2(C)[C@H]2CC[C@@]3(C)[C@@H](CC[C@@]34CCC(=O)O4)[C@H]12 [SPIRONOLACTONE] |  | > 30 |  | 5.5 | > 30 |  | > 30 |  | > 10
